Structures are written as SMILES.

This note sets out measurements from ChEMBL document CHEMBL5634158, “From garden to lab: C-3 chemical modifications of tomatidine unveil broad-spectrum ATP synthase inhibitors to combat bacterial resistance” (Eur J Med Chem, 2023).

One experiment concerns Staphylococcus aureus. The experiment is described as follows: Antibacterial activity against Staphylococcus aureus ATCC 29213 assessed as reduction in microbial growth incubated for 20 hrs under aerobic condition by CLSI based broth microdilution method. In kind it is functional.
A further experiment relates to Escherichia coli. The experiment in a line: Antibacterial activity against Escherichia coli ATCC 25922 assessed as reduction in microbial growth incubated for 20 hrs under aerobic condition by CLSI based broth microdilution method. In kind it is functional. A general note: Broth dilution looks for growth in wells or tubes with falling amounts of substance.

What is called MIC is the lowest concentration found to suppress growth. Take `C[C@H]1CC[C@]2(NC1)O[C@H]1C[C@H]3[C@@H]4CC[C@H]5CC(NC[C@@H](N)C(c6ccccc6)c6ccccc6)CC[C@]5(C)[C@H]4CC[C@]3(C)[C@H]1[C@@H]2C` (mixture of isomers): the minimal inhibitory concentration (MIC) in the experiment on Staphylococcus aureus is 4 µg/mL; in the experiment with Escherichia coli, over 64 µg/mL.

Consider `C[C@H]1CC[C@]2(NC1)O[C@H]1C[C@H]3[C@@H]4CC[C@H]5CC(NCc6ccco6)CC[C@]5(C)[C@H]4CC[C@]3(C)[C@H]1[C@@H]2C` (mixture of isomers), for which the results for the MIC in the experiment with Staphylococcus aureus and in the experiment with Escherichia coli were 32 µg/mL and over 128 µg/mL, respectively.

For `C[C@H]1CC[C@]2(NC1)O[C@H]1C[C@H]3[C@@H]4CC[C@H]5CC(NC[C@@H](N)Cc6cn(C)c7ccccc67)CC[C@]5(C)[C@H]4CC[C@]3(C)[C@H]1[C@@H]2C` (mixture of isomers), the values for the MIC in the experiment with Staphylococcus aureus and with Escherichia coli were 2 µg/mL and 8 µg/mL, respectively.

Consider `C[C@H]1CC[C@]2(NC1)O[C@H]1C[C@H]3[C@@H]4CC[C@H]5CC(NC[C@H](N)CCc6ccccc6)CC[C@]5(C)[C@H]4CC[C@]3(C)[C@H]1[C@@H]2C` (stereo partly specified), for which the minimal inhibitory concentration (MIC) was 4 µg/mL in the experiment with Staphylococcus aureus and 32 µg/mL with Escherichia coli.

In the case of `C[C@H]1CC[C@]2(NC1)O[C@H]1C[C@H]3[C@@H]4CC[C@H]5CC(NCCN(C)C)CC[C@]5(C)[C@H]4CC[C@]3(C)[C@H]1[C@@H]2C` (mixture of isomers), the figures for the MIC with Staphylococcus aureus and in the experiment on Escherichia coli were 8 µg/mL and 128 µg/mL, respectively.

`CCCC(N)(CCC)CNC1CC[C@@]2(C)[C@@H](CC[C@@H]3[C@@H]2CC[C@]2(C)[C@@H]4[C@H](C[C@@H]32)O[C@@]2(CC[C@H](C)CN2)[C@H]4C)C1` (mixture of isomers): the values for the minimal inhibitory concentration (MIC) with Staphylococcus aureus and in the experiment on Escherichia coli were 8 µg/mL and over 128 µg/mL, respectively.

Consider `C[C@H]1CC[C@]2(NC1)O[C@H]1C[C@H]3[C@@H]4CC[C@H]5CC(NC[C@@H](C)N)CC[C@]5(C)[C@H]4CC[C@]3(C)[C@H]1[C@@H]2C` (mixture of isomers), for which the figures for the minimal inhibitory concentration (MIC) in the experiment on Staphylococcus aureus and with Escherichia coli were 4 µg/mL and 64 µg/mL, respectively.

As for `C[C@H]1CC[C@]2(NC1)O[C@H]1C[C@H]3[C@@H]4CC[C@H]5CC(N[C@H]6CCCC[C@@H]6N)CC[C@]5(C)[C@H]4CC[C@]3(C)[C@H]1[C@@H]2C` (mixture of isomers), the values for the MIC with Staphylococcus aureus and with Escherichia coli were 8 µg/mL and over 128 µg/mL, respectively.

For the compound `C[C@H]1CC[C@]2(NC1)O[C@H]1C[C@H]3[C@@H]4CC[C@H]5CC(NC[C@@H](N)Cc6cccnc6)CC[C@]5(C)[C@H]4CC[C@]3(C)[C@H]1[C@@H]2C` (mixture of isomers), the figures for the MIC in the experiment with Staphylococcus aureus and in the experiment on Escherichia coli were 16 µg/mL and over 128 µg/mL, respectively.

With `C[C@H]1CC[C@]2(NC1)O[C@H]1C[C@H]3[C@@H]4CC[C@H]5CC(NCCNS(C)(=O)=O)CC[C@]5(C)[C@H]4CC[C@]3(C)[C@H]1[C@@H]2C` (mixture of isomers), the MIC with Staphylococcus aureus was 32 µg/mL; in the experiment on Escherichia coli, over 128 µg/mL.

As for `C[C@H]1CC[C@]2(NC1)O[C@H]1C[C@H]3[C@@H]4CC[C@H]5CC(NC[C@@H](N)Cc6ccccc6Br)CC[C@]5(C)[C@H]4CC[C@]3(C)[C@H]1[C@@H]2C` (mixture of isomers), the MIC was 4 µg/mL in the experiment with Staphylococcus aureus and 32 µg/mL with Escherichia coli.

On to `C[C@H]1CC[C@]2(NC1)O[C@H]1C[C@H]3[C@@H]4CC[C@H]5CC(NC[C@H](N)Cc6ccccc6)CC[C@]5(C)[C@H]4CC[C@]3(C)[C@H]1[C@@H]2C` (mixture of isomers), for which the figures for the MIC with Staphylococcus aureus and with Escherichia coli were 4 µg/mL and 32 µg/mL, respectively.

As to `C[C@H]1CC[C@]2(NC1)O[C@H]1C[C@H]3[C@@H]4CC[C@H]5CC(NC[C@@H](N)Cc6c[nH]cn6)CC[C@]5(C)[C@H]4CC[C@]3(C)[C@H]1[C@@H]2C` (mixture of isomers), the values for the MIC with Staphylococcus aureus and in the experiment with Escherichia coli were 8 µg/mL and 32 µg/mL, respectively.
